Key:
[1] = bacteroides intestinalis, 12 h, 2 µM
Description: The drug is tested on Bacteroides intestinalis strain: DSM17393 for biotransformation. The drug concentrations were measured before and after a 12-h incubation by liquid-chromatography-coupled mass spectrometry (LC–MS)

[2] = The drug is tested on Bacteroides uniformis strain: ATCC8492 for biotransformation. The drug concentrations were measured before and after a 12-h incubation by liquid-chromatography-coupled mass spectrometry (LC–MS); conditions: 2 µM
[3] = The drug is tested on Bifidobacterium longum subsp. Infantis strain: CCUG52486 for biotransformation. The drug concentrations were measured before and after a 12-h incubation by liquid-chromatography-coupled mass spectrometry (LC–MS); conditions: 2 µM
[4] = bacteroides stercoris, 12 h, 2 µM
Description: The drug is tested on Bacteroides stercoris strain: ATCC43183 for biotransformation. The drug concentrations were measured before and after a 12-h incubation by liquid-chromatography-coupled mass spectrometry (LC–MS)

[5] = bifidobacterium adolescentis, 12 h, 2 µM
Description: The drug is tested on Bifidobacterium adolescentis strain: ATCC 15703 for biotransformation. The drug concentrations were measured before and after a 12-h incubation by liquid-chromatography-coupled mass spectrometry (LC–MS)

[6] = roseburia intestinalis, 12 h, 2 µM
Description: The drug is tested on Roseburia intestinalis strain: L1-82 for biotransformation. The drug concentrations were measured before and after a 12-h incubation by liquid-chromatography-coupled mass spectrometry (LC–MS)

[7] = The drug is tested on Bacteroides dorei strain: DSM17855 for biotransformation. The drug concentrations were measured before and after a 12-h incubation by liquid-chromatography-coupled mass spectrometry (LC–MS); conditions: phocaeicola dorei, 2 µM
[8] = The drug is tested on Bacteroides cellulosilyticus strain: DSM14838 for biotransformation. The drug concentrations were measured before and after a 12-h incubation by liquid-chromatography-coupled mass spectrometry (LC–MS); conditions: 2 µM
[9] = The drug is tested on Bacteroides fragilis strain: HMW610 for biotransformation. The drug concentrations were measured before and after a 12-h incubation by liquid-chromatography-coupled mass spectrometry (LC–MS); conditions: 2 µM
[10] = The drug is tested on Ruminococcus torques strain: ATCC27756 for biotransformation. The drug concentrations were measured before and after a 12-h incubation by liquid-chromatography-coupled mass spectrometry (LC–MS); format: ADME; set-up: dose 2 uM, timepoint 0 vs 12 hours; conditions: 2 µM
[11] = The drug is tested on Clostridium symbiosum strain: ATCC14940 for biotransformation. The drug concentrations were measured before and after a 12-h incubation by liquid-chromatography-coupled mass spectrometry (LC–MS); conditions: 2 µM
[12] = The drug is tested on Ruminococcus lactaris strain: ATCC29176 for biotransformation. The drug concentrations were measured before and after a 12-h incubation by liquid-chromatography-coupled mass spectrometry (LC–MS); conditions: 2 µM
[13] = bacteroides thetaiotaomicron, 12 h, 2 µM
Description: The drug is tested on Bacteroides thetaiotaomicron strain: 7330 for biotransformation. The drug concentrations were measured before and after a 12-h incubation by liquid-chromatography-coupled mass spectrometry (LC–MS)

[14] = akkermansia muciniphila, 12 h, 2 µM
Description: The drug is tested on Akkermansia muciniphila strain: ATCC BAA-835 for biotransformation. The drug concentrations were measured before and after a 12-h incubation by liquid-chromatography-coupled mass spectrometry (LC–MS)

[15] = The drug is tested on Bacteroides vulgatus strain: ATCC8482 for biotransformation. The drug concentrations were measured before and after a 12-h incubation by liquid-chromatography-coupled mass spectrometry (LC–MS); conditions: phocaeicola vulgatus, 2 µM
[16] = The drug is tested on Bacteroides fragilis strain: ATCC43859 for biotransformation. The drug concentrations were measured before and after a 12-h incubation by liquid-chromatography-coupled mass spectrometry (LC–MS); conditions: 2 µM
[17] = bacteroides eggerthii, 12 h, 2 µM
Description: The drug is tested on Bacteroides eggerthii strain: DSM20697 for biotransformation. The drug concentrations were measured before and after a 12-h incubation by liquid-chromatography-coupled mass spectrometry (LC–MS)

[18] = The drug is tested on Bacteroides finegoldii strain: DSM17565 for biotransformation. The drug concentrations were measured before and after a 12-h incubation by liquid-chromatography-coupled mass spectrometry (LC–MS); conditions: 2 µM
[19] = The drug is tested on Providencia rettgeri strain: DSM1131 for biotransformation. The drug concentrations were measured before and after a 12-h incubation by liquid-chromatography-coupled mass spectrometry (LC–MS); format: ADME; set-up: dose 2 uM, timepoint 0 vs 12 hours; conditions: 2 µM
[20] = The drug is tested on Bifidobacterium ruminantium strain: fecal isolate for biotransformation. The drug concentrations were measured before and after a 12-h incubation by liquid-chromatography-coupled mass spectrometry (LC–MS); conditions: 2 µM

Row | Bacterial Biotransformation [1] | Bacterial Biotransformation [2] | Bacterial Biotransformation [3] | Bacterial Biotransformation [4] | Bacterial Biotransformation [5] | Bacterial Biotransformation [6] | Bacterial Biotransformation [7] | Bacterial Biotransformation [8] | Bacterial Biotransformation [9] | Bacterial Biotransformation [10] | Bacterial Biotransformation [11] | Bacterial Biotransformation [12] | Bacterial Biotransformation [13] | Bacterial Biotransformation [14] | Bacterial Biotransformation [15] | Bacterial Biotransformation [16] | Bacterial Biotransformation [17] | Bacterial Biotransformation [18] | Bacterial Biotransformation [19] | Compound | Bacterial Biotransformation [20]
1 | Compound NOT metabolized | Compound NOT metabolized | Compound NOT metabolized | Compound NOT metabolized | Compound NOT metabolized | Compound NOT metabolized | Compound NOT metabolized | Compound NOT metabolized | Compound NOT metabolized | Compound NOT metabolized | Compound NOT metabolized | Compound NOT metabolized | Compound NOT metabolized | Compound NOT metabolized | Compound NOT metabolized | Compound NOT metabolized | Compound NOT metabolized | Compound NOT metabolized | – | COc1cc(C(=O)NCc2ccc(OCCN(C)C)cc2)cc(OC)c1OC [TRIMETHOBENZAMIDE] | –
2 | Compound metabolized | Compound metabolized | Compound metabolized | Compound metabolized | Compound NOT metabolized | Compound NOT metabolized | Compound metabolized | Compound metabolized | Compound metabolized | Compound NOT metabolized | Compound NOT metabolized | Compound NOT metabolized | Compound metabolized | Compound NOT metabolized | Compound metabolized | Compound metabolized | Compound metabolized | – | – | N#Cc1ccc2[nH]cc(CCCCN3CCN(c4ccc5oc(C(N)=O)cc5c4)CC3)c2c1 [VILAZODONE] | –
3 | – | – | Compound NOT metabolized | Compound metabolized | Compound NOT metabolized | Compound NOT metabolized | Compound metabolized | Compound NOT metabolized | – | – | Compound NOT metabolized | – | Compound metabolized | Compound NOT metabolized | – | Compound metabolized | – | Compound NOT metabolized | Compound NOT metabolized | CC(=O)OCC(=O)[C@@]1(O)[C@@H](C)C[C@H]2[C@@H]3CCC4=CC(=O)C=C[C@]4(C)[C@@]3(F)[C@@H](O)C[C@@]21C [BETAMETHASONE ACETATE] | –
4 | Compound NOT metabolized | Compound NOT metabolized | Compound NOT metabolized | Compound NOT metabolized | Compound NOT metabolized | Compound NOT metabolized | – | Compound NOT metabolized | – | Compound NOT metabolized | Compound NOT metabolized | Compound NOT metabolized | Compound NOT metabolized | Compound NOT metabolized | Compound NOT metabolized | Compound NOT metabolized | Compound NOT metabolized | Compound NOT metabolized | – | CCCc1nn(C)c2c(=O)[nH]c(-c3cc(S(=O)(=O)N4CCN(C)CC4)ccc3OCC)nc12.O=C(O)CC(O)(CC(=O)O)C(=O)O [SILDENAFIL CITRATE] | –
5 | Compound NOT metabolized | Compound NOT metabolized | Compound NOT metabolized | Compound NOT metabolized | Compound NOT metabolized | – | – | Compound NOT metabolized | Compound NOT metabolized | Compound NOT metabolized | Compound NOT metabolized | – | – | Compound NOT metabolized | Compound NOT metabolized | Compound NOT metabolized | Compound NOT metabolized | Compound NOT metabolized | – | CC(CN1c2ccccc2Sc2ccccc21)N(C)C (stereo unspecified) [PROMETHAZINE] | –
6 | Compound NOT metabolized | Compound metabolized | Compound NOT metabolized | Compound metabolized | Compound NOT metabolized | Compound NOT metabolized | Compound metabolized | Compound metabolized | Compound metabolized | Compound NOT metabolized | Compound NOT metabolized | Compound NOT metabolized | Compound metabolized | Compound NOT metabolized | Compound metabolized | – | – | Compound NOT metabolized | Compound NOT metabolized | CCCc1nc2c(C)cc(-c3nc4ccccc4n3C)cc2n1Cc1ccc(-c2ccccc2C(=O)O)cc1 | Compound NOT metabolized
7 | Compound NOT metabolized | Compound NOT metabolized | Compound NOT metabolized | Compound NOT metabolized | Compound NOT metabolized | Compound NOT metabolized | Compound NOT metabolized | Compound NOT metabolized | – | Compound NOT metabolized | – | – | Compound NOT metabolized | Compound NOT metabolized | Compound NOT metabolized | Compound NOT metabolized | Compound NOT metabolized | Compound NOT metabolized | – | CCN(CC)CCCC(C)Nc1c2ccc(Cl)cc2nc2ccc(OC)cc12 (stereo unspecified) [QUINACRINE] | –

Row | Compound | Bacterial Biotransformation [1] | Bacterial Biotransformation [2] | Bacterial Biotransformation [3] | Bacterial Biotransformation [4] | Bacterial Biotransformation [5] | Bacterial Biotransformation [6] | Bacterial Biotransformation [7] | Bacterial Biotransformation [8] | Bacterial Biotransformation [9] | Bacterial Biotransformation [10] | Bacterial Biotransformation [11] | Bacterial Biotransformation [12] | Bacterial Biotransformation [13] | Bacterial Biotransformation [14] | Bacterial Biotransformation [15] | Bacterial Biotransformation [16] | Bacterial Biotransformation [17] | Bacterial Biotransformation [18] | Bacterial Biotransformation [19] | Bacterial Biotransformation [20]
8 | CCCCCNC(=N)N/N=C/c1c[nH]c2ccc(OC)cc12.O=C(O)/C=C\C(=O)O [TEGASEROD MALEATE] | Compound NOT metabolized | Compound NOT metabolized | Compound NOT metabolized | Compound NOT metabolized | Compound NOT metabolized | Compound NOT metabolized | Compound NOT metabolized | Compound NOT metabolized | Compound NOT metabolized | Compound NOT metabolized | Compound NOT metabolized | Compound NOT metabolized | Compound NOT metabolized | Compound NOT metabolized | Compound NOT metabolized | Compound NOT metabolized | Compound NOT metabolized | Compound NOT metabolized | – | –
9 | CS(=O)(=O)O.OC(CCN1CCCCC1)(c1ccccc1)c1ccccc1 [PRIDINOL METHANESULFONATE] | Compound NOT metabolized | – | Compound NOT metabolized | Compound NOT metabolized | Compound NOT metabolized | Compound NOT metabolized | Compound NOT metabolized | Compound NOT metabolized | Compound NOT metabolized | Compound NOT metabolized | Compound NOT metabolized | Compound NOT metabolized | Compound NOT metabolized | Compound NOT metabolized | Compound NOT metabolized | – | Compound NOT metabolized | Compound NOT metabolized | Compound NOT metabolized | Compound NOT metabolized

From ChEMBL document CHEMBL5303573, “Mapping human microbiome drug metabolism by gut bacteria and their genes” (Nature, 2019)
